The values that follow come from US20240408129A1, “TISSUE FORMATION AGENT” (NATIONAL UNIVERSITY CORPORATION SHIGA UNIVERSITY OF MEDICAL …, priority 2021, published 2024).

For the data set, the system named is tissue between the subcutaneous fascia of the rat back. The following applies: in vivo, sc. On the procedure: Six rats (Wistar/ST female) were anesthetized by intraperitoneal administration of pentobarbital and inhalation of isoflurane, and each of the solutions (physiological saline and a 2% aqueous solution of low-endotoxin sodium alginate AL2) was individually injected (implanted) in an amount of 1 ml into the tissue between the subcutaneous fascia at a subcutaneous depth of about 1 cm at each of eight sites from the upper back to the lower back, using 1-ml syringe and a 23 G needle. The injection of each solution was performed after randomization. Each needle entry site was sutured with one stitch of 5-0 proline thread.
After 3 weeks, each rat was sacrificed by pentobarbital overdose, and the back implantation sites were cut out and immersion-fixed in a 10% formaldehyde solution. The fixed tissues were subjected to hematoxylin-eosin staining (HE staining) and safranin-O staining (SOFG staining) according to usual methods.
After 12 weeks, HE staining and SOFG staining were performed in the same manner as in Example 1.
Rats in which implantation was performed in the same manner as in Example 4 were subjected to MTC staining, and type I collagen staining in addition to HE staining and SOFG staining. […] MTC staining and type I collagen staining were performed according to usual methods. […]

For collagen, the “retention / residual implanted material at injection site” value is on record as “present in an amorphous state at the injection sites”.
